Measurements taken from US20050250166A1, “Cdc7-ask kinase complex, substrates of the kinase complex, antibody specific to the substrate, and method of screening compound capable of inhibiting cdc7-ask kinase using the same” (Medical and Biological Laboratories Co. Ltd., priority 2002, published 2005).

B1: GST-TAT-ASK(minimum) (other)
chain: YGRKKRRQRRRDIRYYIEQKKKELYLLKKSSTSVRDGGKRVGSGAQKTRTGRLKKPFVKVEDMSQLYRPFYLQLTNMPFINYSIQKPCSPFDVDKPSSMQKQTQVKLRIQTDGDKYGGTSIQLQLKEKKKKGYCECCLQKYEDLETHLLSEQHRNFAQSNQYQVVDDIVSKLVFDFVEYEKDTPKKK
notes: also called GST-ASK; partial ASK

Experiments:
Cdc7-ASK complex = target: T1, Cdc7-ASK complex (Homo sapiens, UniProt O00311); assay: ELISA system for measuring inhibition of Cdc7-ASK complex phosphorylation activity (GST-Mcm2 (1-130 a.a.) substrate, anti-Mcm2-phospho-S17 antibody); format: biochemical; details: for concentration-dependent inhibitory effect for Cdc7-ASK complex: ELISA, inhibitor dilution series, FIG. 8
T1 construct: made in house; host or cells: E. coli C600 lon-
T1 sequence (O00311 14-574 limits assumed, one chain of several): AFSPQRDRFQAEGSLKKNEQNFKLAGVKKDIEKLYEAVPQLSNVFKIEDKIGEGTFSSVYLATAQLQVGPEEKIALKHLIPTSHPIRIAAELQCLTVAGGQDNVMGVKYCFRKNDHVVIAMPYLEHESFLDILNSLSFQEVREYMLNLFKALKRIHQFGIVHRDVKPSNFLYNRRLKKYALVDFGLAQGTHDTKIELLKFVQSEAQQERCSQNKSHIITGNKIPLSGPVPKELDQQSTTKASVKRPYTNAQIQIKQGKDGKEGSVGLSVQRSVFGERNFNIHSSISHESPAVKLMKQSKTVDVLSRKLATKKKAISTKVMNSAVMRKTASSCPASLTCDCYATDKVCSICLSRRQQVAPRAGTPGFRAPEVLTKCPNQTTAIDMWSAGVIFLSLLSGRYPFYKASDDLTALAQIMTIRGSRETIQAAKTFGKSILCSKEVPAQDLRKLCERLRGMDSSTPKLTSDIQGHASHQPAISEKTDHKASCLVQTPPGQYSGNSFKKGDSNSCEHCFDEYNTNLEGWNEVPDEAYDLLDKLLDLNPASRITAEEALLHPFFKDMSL
Method: GST-Mcm2 (1-130 a.a.) and GST-Mcm2 (1-80 a.a.) were diluted to 5 μg/ml using 0.1 M carbonate buffer, pipetted at 50 μl/well in to each well of a microtiter plate for ELISA, and then sensitized overnight at 4° C. The sensitizing solution was removed, a blocking solution (1% BSA, 5% sucrose and 0.1% NaN3/PBS) was pipetted in to each well at 200 μl/well, and the plate was allowed to stand for about one hour at room temperature. The blocking solution was then completely removed. The plates were then air-dried in a draft chamber, and stored at 4° C. until use. GST-Mcm2 (1-130 a.a.) and GST-Mcm2 (1-80 a.a.) were immobilized on the inner walls of the microtiter plates by this procedure.
A recombinant Cdc7-ASK complex dilution series was prepared by diluting from one-fold (×1) to 64-fold in two-fold increments using a phosphorylation buffer. 50 μl aliquots of this solution were added to the wells of the immobilized plates (a protein phosphorylation reaction). After incubating at 30° C. for a fixed period of time, the phosphorylation reaction solution was discarded and each well was amply washed four or more times with PBS. […] The primary antibody reaction solution was then discarded and each well was amply washed four or more times with PBS. Anti-rabbit immunoglobulin antibody (secondary antibody, MBL) labeled with horseradish peroxidase (HRP) was then diluted 1000-fold with PBS and added to each well in 50 μl aliquots, then allowed to react for 30 to 60 minutes at room temperature (secondary antibody reaction). The secondary antibody reaction solution was then discarded and each well was washed four or more times with PBS. A coloring substrate solution was then added to each well in 50 μl aliquots, and color was developed for five to 20 minutes (coloring reaction). The coloring reaction was stopped by adding 50 μl aliquots of reaction stopping solution to each well, and the optical absorbance at 450 nm was measured using a microplate reader. […]

HA-huCdc7 (wild type) = target: T2, HA-huCdc7 (wild type) (human, UniProt O00311 14-574); assay: co-purification on glutathione Sepharose 4B from E. coli co-expression, SDS-PAGE with silver staining
T2 construct: also called HA-Cdc7
T2 sequence (O00311 other isoform, or with tags, fused parts or gaps): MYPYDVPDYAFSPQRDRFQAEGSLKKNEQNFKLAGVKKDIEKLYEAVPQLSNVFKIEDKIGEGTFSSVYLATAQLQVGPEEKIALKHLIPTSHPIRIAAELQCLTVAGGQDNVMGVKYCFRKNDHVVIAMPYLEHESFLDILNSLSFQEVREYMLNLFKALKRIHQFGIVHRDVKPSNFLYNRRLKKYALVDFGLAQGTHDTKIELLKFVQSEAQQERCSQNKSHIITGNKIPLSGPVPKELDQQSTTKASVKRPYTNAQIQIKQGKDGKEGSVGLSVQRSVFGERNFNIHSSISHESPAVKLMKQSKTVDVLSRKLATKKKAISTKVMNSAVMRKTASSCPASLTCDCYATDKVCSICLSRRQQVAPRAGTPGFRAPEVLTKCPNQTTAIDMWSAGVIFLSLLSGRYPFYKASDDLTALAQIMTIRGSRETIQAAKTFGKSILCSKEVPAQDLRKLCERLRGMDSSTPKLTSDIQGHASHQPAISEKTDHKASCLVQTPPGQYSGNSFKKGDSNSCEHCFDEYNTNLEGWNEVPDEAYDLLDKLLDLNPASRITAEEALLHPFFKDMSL

| Molecule | IC50 (Cdc7-ASK complex) [nM] | concentration-dependent inhibitory effect for Cdc7-ASK complex (Cdc7-ASK complex) | binding result (HA-huCdc7 (wild type)) |
| --- | --- | --- | --- |
| COC(=O)[C@@]1(O)C[C@H]2O[C@]1(C)n1c3ccccc3c3c4c(c5c6ccccc6n2c5c31)C(=O)NC4 [K-252a] | 2000 | concentration-dependent | – |
| CC[C@H](CO)Nc1nc(NCc2ccccc2)c2ncn(C(C)C)c2n1 [Roscovitine] | – | not observed | – |
| B1 | – | – | binds |
